# Reference: patent US6673839B1, “Pharmaceutical compositions with antitumour activity” (Universita' Degli Studi di Catania, priority 1998, dated 2004)
# Where a name gives a salt, the structure may show the parent alone.
# Assays:
# [1] = system: colon (HT 29) adenocarcinoma cell line; test: Methylene blue assay on stabilized human neoplastic cell lines; format: cell-based
# Protocol: (§1) The effects of L-aC on stabilized human neoplastic cell lines were tested using the methylene blue assay.
# (§2) Acute promyelocytic leukemia cell line (HL60) and prostate (Du 145), colon (HT 29) and breast (MCF 7) adenocarcinoma cell lines have been used.
# (§3) Cell suspensions at concentrations of 10^5 cells/ml were prepared.
# (§4) 100 μl of the obtained cell suspension were inoculated on 96 well plates and incubated at 37° for 12 hours, to obtain cell adhesion to the plates. After 12 hours, L-aC was added at the concentrations of 0.2 mg/ml, 2 mg/ml, 20 mg/ml. […] Subsequently ethanol was removed and 1% methylene-blue was added for 2 hours. The dye was then removed and the plates were dried before adding 1M HCl.
# (§5) The cytotoxicity percentage was calculated using the following formula:
# (§6) (1−[O^D treated cells/O^D control cells)×100.
# (§7) The optical density was evaluated by Uniskan micro-spectrophotometer with 630 nmwavelength filter.
# (§8) The induction of apoptosis (appraised by Giemsa staining) was remarkable mainly on stabilized human neoplastic cell lines from breast and colon carcinomas.
# [2] = system: breast (MCF 7) adenocarcinoma cell line; test: as above; format: cell-based
# Protocol: as §1, §2, §3, §4, §5, §6, §7, §8
# [3] = system: Yoshida ascitogenic tumour; test: Sprague-Dowley rats inoculated with Yoshida ascitogenic tumour, treatment; format: in vivo; set-up: surviving animals (mortality curve): unit not given here
# Protocol: Yoshida tumour is a transplantable, ascitogenic experimental tumour consisting of histiocyte-like immortalized cells.
# The tumour causes, on the average 7 days after the intraperitoneal inoculation in Sprague-Dowley rat, the formation of 120-150 ml of ascites which reappears 3-4 days after complete emptying of the peritoneal cavity and induces death of all the animals within 14-16 days after inoculation.
# 300 Sprague-Dowley rats (4 months old, mean weight: 200 g), under standard feeding and temperature conditions (25° C.), were inoculated with Yoshida tumour. The onset and evolution of the tumour were checked by daily observation and weighing. One week after the inoculation of the tumour, rats were divided in 6 groups and treated as follows:
# Group 1: 50 rats were subjected, on day 8 to 14, to daily emptying of 5 ml of ascitic fluid which was substituted with 5 ml of saline solution;
# Group 2: 50 rats were subjected, on day 8 to 14, to daily emptying of 5 ml of ascitic fluid which was substituted with 50 mg of L-aC diluted in 5 ml of saline solution;
# Group 3: 25 rats were subjected, on day 8 to 14, to daily emptying of 5 ml of ascitic fluid which was substituted with 80 mg of L-aC diluted in 5 ml of saline solution;
# Group 4: 25 rats were subjected, on day 8 to 14, to daily emptying of 5 ml of ascitic fluid which was substituted with 120 mg of L-aC diluted in 5 ml of saline solution;
# Group 5: 100 rats were subjected, on day 8 to 14, to evacuation on alternate days of 5 ml of ascitic fluid which was substituted with 25 mg of L-aC diluted in 5 ml of saline solution;
# Group 6: 50 rats were used as control and received no treatment.
# [4] = system: cells from 4 primitive epidermoid carcinomas of the larynx and 1 primitive undifferentiated carcinoma of the nasopharynx; test: In vitro short-term chemosensitivity assay (MTT), all five explants; format: cell-based, human
# Protocol: The effects of L-aC on cells from 4 primitive epidermoid carcinomas of the larynx and 1 primitive undifferentiated carcinoma of the nasopharynx were tested.
# Tissue fragments from the tumour mass were mechanically dissociated in Hank's solutions adding an antibiotic and an antifungal to obtain a cell monosuspension free of agglomerates. The resulting suspension was centrifuged at 1200 rpm for 5 minutes and the pellet was resuspended in MEM culture medium supplemented with 10% of patient serum, to obtain a concentration of 10^5 cells/ml. Subsequently, 180 μl of the resulting suspension were dispensed in microplate wells and incubated under 5% CO2 atmosphere at 37° C. for 3 days. After that, the antitumor medicaments were added in the amount of 20 μl for each well, at a concentration of 0.1×, 1× and 10× the maximum serum concentrations that can usually be reached in clinical practice. 24 h after the beginning of the exposure to the antitumour medicament, 100 μl of MTT were added, and after 4 h, a further 150 μl of dimethylsulfoxide were added.
# The optical density was evaluated by a Uniscan microspectrophotometer with a […] wavelength filter. Cytotoxicity was evaluated as percentage of the optical density of the treated sample compared with the optical density of the control.
# Bleomycin (BLEC), […] (CDDP), 5-fluoruracil (5-FU), vincristine (VCR), epidoxorubicin (Epi-Dx) and methotrexate (MTX) were tested for comparison purposes.
# L-aC was tested at the following concentrations: 0.2-2-20 mg/ml.
# [5] = 20 mg/ml, 48 hours after exposure
compound,measurement,setting,value
"CC(=O)OC(CC(=O)[O-])C[N+](C)(C)C [L-aC, L-acetylcarnitine hydrochloride]",cytotoxicity (percentage of dead cells),[1]; [5],63%
same,induction of apoptosis (Giemsa staining),[1]; colon carcinoma line,remarkable
same,cytotoxicity (percentage of dead cells),[2]; [5],68%
same,induction of apoptosis (Giemsa staining),[2]; breast carcinoma line,remarkable
same,necroscopy finding,[3]; 6 animals sacrified at end of observation,no presence of the disease
same,animals died during further treatment,[3]; 47 Group 5 survivors treated a further 2 weeks,21
same,surviving animals (mortality curve),"[3]; Group 2, 50 mg lac i.p. daily day 8-14, day 0 transplant",50
same,surviving animals (mortality curve),"[3]; Group 2, 50 mg lac i.p. daily day 8-14, day 1",50
same,surviving animals (mortality curve),"[3]; Group 2, 50 mg lac i.p. daily day 8-14, day 2",50
same,surviving animals (mortality curve),"[3]; Group 2, 50 mg lac i.p. daily day 8-14, day 3",50
same,surviving animals (mortality curve),"[3]; Group 2, 50 mg lac i.p. daily day 8-14, day 4",50
same,surviving animals (mortality curve),"[3]; Group 2, 50 mg lac i.p. daily day 8-14, day 5",50
same,surviving animals (mortality curve),"[3]; Group 2, 50 mg lac i.p. daily day 8-14, day 6",50
same,surviving animals (mortality curve),"[3]; Group 2, 50 mg lac i.p. daily day 8-14, day 7",50
same,surviving animals (mortality curve),"[3]; Group 2, 50 mg lac i.p. daily day 8-14, day 8",42
same,surviving animals (mortality curve),"[3]; Group 2, 50 mg lac i.p. daily day 8-14, day 9",32
same,surviving animals (mortality curve),"[3]; Group 2, 50 mg lac i.p. daily day 8-14, day 10",21
same,surviving animals (mortality curve),"[3]; Group 2, 50 mg lac i.p. daily day 8-14, day 11",17
same,surviving animals (mortality curve),"[3]; Group 2, 50 mg lac i.p. daily day 8-14, day 12",12
same,surviving animals (mortality curve),"[3]; Group 2, 50 mg lac i.p. daily day 8-14, day 13",5
same,surviving animals (mortality curve),"[3]; Group 2, 50 mg lac i.p. daily day 8-14, day 14",0
same,day after inoculation by which all animals died,"[3]; Group 2, 50 rats, 50 mg L-aC i.p. daily day 8 to 14",≤ 14 days
same,surviving animals (mortality curve),"[3]; Group 3, 80 mg lac i.p. daily from day 8, day 0 transplant",25
same,surviving animals (mortality curve),"[3]; Group 3, 80 mg lac i.p. daily from day 8, day 1",25
same,surviving animals (mortality curve),"[3]; Group 3, 80 mg lac i.p. daily from day 8, day 2",25
same,surviving animals (mortality curve),"[3]; Group 3, 80 mg lac i.p. daily from day 8, day 3",25
same,surviving animals (mortality curve),"[3]; Group 3, 80 mg lac i.p. daily from day 8, day 4",25
same,surviving animals (mortality curve),"[3]; Group 3, 80 mg lac i.p. daily from day 8, day 5",25
same,surviving animals (mortality curve),"[3]; Group 3, 80 mg lac i.p. daily from day 8, day 6",25
same,surviving animals (mortality curve),"[3]; Group 3, 80 mg lac i.p. daily from day 8, day 7",25
same,surviving animals (mortality curve),"[3]; Group 3, 80 mg lac i.p. daily from day 8, day 8",12
same,surviving animals (mortality curve),"[3]; Group 3, 80 mg lac i.p. daily from day 8, day 9",5
same,surviving animals (mortality curve),"[3]; Group 3, 80 mg lac i.p. daily from day 8, day 10",0
same,time after 1st administration by which all animals died,"[3]; Group 3, 25 rats, 80 mg L-aC i.p.",≤ 72 h
same,day after inoculation by which all animals died,"[3]; Group 3, 25 rats, 80 mg L-aC i.p. daily from day 8",≤ 10 days
same,surviving animals (mortality curve),"[3]; Group 4, 120 mg lac i.p. daily from day 8, day 0 transplant",25
same,surviving animals (mortality curve),"[3]; Group 4, 120 mg lac i.p. daily from day 8, day 1",25
same,surviving animals (mortality curve),"[3]; Group 4, 120 mg lac i.p. daily from day 8, day 2",25
same,surviving animals (mortality curve),"[3]; Group 4, 120 mg lac i.p. daily from day 8, day 3",25
same,surviving animals (mortality curve),"[3]; Group 4, 120 mg lac i.p. daily from day 8, day 4",25
same,surviving animals (mortality curve),"[3]; Group 4, 120 mg lac i.p. daily from day 8, day 5",25
same,surviving animals (mortality curve),"[3]; Group 4, 120 mg lac i.p. daily from day 8, day 6",25
same,surviving animals (mortality curve),"[3]; Group 4, 120 mg lac i.p. daily from day 8, day 7",25
same,surviving animals (mortality curve),"[3]; Group 4, 120 mg lac i.p. daily from day 8, day 8",0
same,time from 1st administration by which all animals died,"[3]; Group 4, 25 rats, 120 mg L-aC i.p.",≤ 24 h
same,day after inoculation by which all animals died,"[3]; Group 4, 25 rats, 120 mg L-aC i.p. from day 8",≤ 8 days
same,surviving animals (mortality curve),"[3]; Group 5, 25 mg lac i.p. alternate days day 8-14, day 0 transplant",100
same,surviving animals (mortality curve),"[3]; Group 5, 25 mg lac i.p. alternate days day 8-14, day 1",100
same,surviving animals (mortality curve),"[3]; Group 5, 25 mg lac i.p. alternate days day 8-14, day 2",100
same,surviving animals (mortality curve),"[3]; Group 5, 25 mg lac i.p. alternate days day 8-14, day 3",100
same,surviving animals (mortality curve),"[3]; Group 5, 25 mg lac i.p. alternate days day 8-14, day 4",100
same,surviving animals (mortality curve),"[3]; Group 5, 25 mg lac i.p. alternate days day 8-14, day 5",100
same,surviving animals (mortality curve),"[3]; Group 5, 25 mg lac i.p. alternate days day 8-14, day 6",100
same,surviving animals (mortality curve),"[3]; Group 5, 25 mg lac i.p. alternate days day 8-14, day 7",96
same,surviving animals (mortality curve),"[3]; Group 5, 25 mg lac i.p. alternate days day 8-14, day 8",91
same,surviving animals (mortality curve),"[3]; Group 5, 25 mg lac i.p. alternate days day 8-14, day 9",83
same,surviving animals (mortality curve),"[3]; Group 5, 25 mg lac i.p. alternate days day 8-14, day 10",79
same,surviving animals (mortality curve),"[3]; Group 5, 25 mg lac i.p. alternate days day 8-14, day 11",61
same,surviving animals (mortality curve),"[3]; Group 5, 25 mg lac i.p. alternate days day 8-14, day 12",50
same,surviving animals (mortality curve),"[3]; Group 5, 25 mg lac i.p. alternate days day 8-14, day 13",48
same,surviving animals (mortality curve),"[3]; Group 5, 25 mg lac i.p. alternate days day 8-14, day 14",47
same,animals still alive,"[3]; Group 5, 100 rats, 25 mg L-aC i.p. alternate days, day 15 after inoculation",47
same,ascites amount in survivors,"[3]; Group 5, day 15 after inoculation",remarkable reduction of the ascites amount
same,general condition of survivors,"[3]; Group 5, day 28",good health
same,ascitic fluid in survivors,"[3]; Group 5, day 28 after inoculation",complete disappearance of the ascitic fluid
same,deaths during further observation,"[3]; Group 5 survivors, further 6 weeks",no deaths occurred
same,animals still alive,"[3]; of 47 Group 5 survivors, day 28 after inoculation",26
same,IC50,"[4]; Homo sapiens, read-out: IC 50 concentrations",20 to 700 µg/mL
same,IC90,"[4]; Homo sapiens, read-out: IC 90 concentrations",700 to 20000 µg/mL
same,most active medicaments (cases out of 5),[4]; five explants,4/5
